Reference: patent US5618831A, “Composition and method for treating cancer” (Fuji Photo Film Co., Ltd., priority 1992, dated 1997)

Assays:
[1] = system: human colon carcinoma cell line CX-1; test: colony formation, human colon carcinoma cell line CX-1 (24 h exposure, 7-10 days incubation); format: cell-based; conditions: Table I; for Selectivity: ratio of IC50 for CV-1 and IC50 for CX-1; for IC50: Homo sapiens, CX-1 cells, 24 h treatment, colony number reduced to 50% of control
Description: (§1) CX-1 cells (2,000 cells/well) and CV-1 cells (1,000 cells/well) were plated in 24-well plastic culture plates. […] The control received culture media only. Cells were treated with compounds of General Formulas (I) to (III) at 37° C. for 24 hours. After rinsing with fresh culture medium three times, the cells were further incubated at 37° C. for 7 to 10 days. Cell colonies were fixed and stained with 2% crystal violet in 70% ethanol for 10 minutes and rinsed in water. […] The selectivity is defined as the ratio of IC50 for CV-1 and IC50 for CX-1.

normal nude mice = test: toxicity to normal nude mice
[2] = absorption spectrum of methanol solutions; format: physicochemical; conditions: for ε (molar absorptivity): at λmax; for λmax (MeOH): maximum absorption wavelength
Description: Absorption spectrum of methanol solutions of the compounds used in the present invention was determined.

[3] = system: normal monkey kidney epithelial cell line CV-1; test: colony formation, normal monkey kidney epithelial cell line CV-1 (24 h exposure, 7-10 days incubation); format: cell-based; conditions: Primates, CV-1 cells
Description: as §1

[4] = system: LOX, a human melanoma cell line; test: nude mice bearing human melanoma (LOX, i.p.), survival; format: in vivo, human (LOX) in male athymic Swiss nu/nu mouse; conditions: mean survival treated / untreated control
Description: Nude Mice Bearing Human Melanoma as a Model System
LOX, a human melanoma cell line, grown subcutaneously in nude mice was excised, trypsinized to yield a single cell suspension using a metal grid with a […]. Red blood cells were lysed by incubation with 0.17 molar ammonium chloride at 4° C. for 20 minutes. Five million viable trypan blue negative cells made up in 0.1 ml of Dulbecco modified Eagles' medium (DME) were injected into the peritoneal cavity of a male athymic Swiss nu/nu mouse. The control group and each treatment group consisted of 5 to 10 mice. Treatment was commenced the following day by intraperitoneal injection.
Ten control mice received 0.25 ml of 2% dextrose on those days the treated groups were injected with the compounds of this invention. The compounds used in this invention which were tested are listed in Table III below and the results obtained are also shown in Table III. T/C is the ratio, expressed as a percentage of the mean survival age of the treated group to the mean survival age of the untreated control group.

KB cell = test: colony formation, KB cell (protocol of Example 1); conditions: for IC50: Homo sapiens, KB, read-out: KB Cell (IC50); for Selectivity: Table II, ratio of IC50 for CV-1 and IC50 for KB cell
Description: as §1

[5] = Table I, 24 h treatment, colony number reduced to 50% of control
[6] = Table II, protocol of Example 1

| ε (molar absorptivity) [2] | λmax (MeOH) [2] [nm] | IC50 (KB cell) [µg/mL] | SMILES | Selectivity [1] | Selectivity (KB cell) | other results |
| --- | --- | --- | --- | --- | --- | --- |
| 8.31 × 10^4 | 570 | – | CCN1C(C)=CSC1=CC=C1SC(=Nc2sc3cc(OC)ccc3[n+]2CC)N(CC)C1=O [Compound II-3] | – | – | – |
| 7.49 × 10^4 | 500 | – | CCn1c(=Cc2sc3ccccc3[n+]2CC)sc(=C2Sc3ccccc3N2C)c1=O [Compound S-1, reference compound] | – | – | – |
| 9.44 × 10^4 | 593 | – | CCn1c(=Cc2sc3ccccc3[n+]2CC)sc(=CC=C2Sc3ccccc3N2C)c1=O [Compound S-2, reference compound] | – | – | – |
| 5.78 × 10^4 | 520 | – | CCN1CCSC1=CC=C1SC(=Nc2sc3ccccc3[n+]2CC)N(CC)C1=O [II-2] | – | – | – |
| 7.58 × 10^4 | 564 | 0.15 | CC[n+]1c(N=C2SC(=CC=C3Sc4ccccc4N3C)C(=O)N2C)sc2ccccc21 [II-4] | – | 196 | IC50 [3, 6]: 29.4 µg/mL |
| – | – | 0.078 | CN1C(=O)C(=CC=C2Sc3ccccc3N2C)SC1=Nc1scc[n+]1C [II-24] | – | 336 | IC50 [3, 6]: 26.2 µg/mL |

The next lines start with the compound.

| SMILES | ε (molar absorptivity) [2] | λmax (MeOH) [2] [nm] | IC50 (KB cell) [µg/mL] | Selectivity [1] | Selectivity (KB cell) | other results |
| --- | --- | --- | --- | --- | --- | --- |
| CCN1C(=CC=Cc2sc3c4ccccc4ccc3[n+]2CC)Sc2c1ccc1ccccc21 [B, reference compound] | – | – | – | < 2 | – | – |
| CCN1C(=CC=c2sc(=Cc3sc4c([n+]3CC)CCCC4)n(CC)c2=O)Oc2ccccc21 [Compound C, reference compound] | – | – | – | 50 | – | toxicity to normal nude mice (normal nude mice): less toxic to normal nude mice |
| CCN1C(=O)C(=C2Sc3ccc(OC)cc3N2C)SC1=Nc1sc2ccccc2[n+]1CC [Compound I-5] | 4.45 × 10^4 | 460 | – | – | – | – |
| CCN1C(=O)C(=C2Sc3ccccc3N2C)SC1=Nc1cccc[n+]1CC [Compound I-6, 1-ethyl-2-{[3-ethyl-5-(3-methylbenzothiazolin-2-ylidene)]-4-oxothiazolin-2-ylideneamino} pyridinium iodide] | 3.52 × 10^4 | 434 | – | – | – | – |
| CCN1C(=O)C(=C2Sc3ccccc3N2C)SC1=Nc1cccc[n+]1CC [Compound I-7] | 3.37 × 10^4 | 435 | – | – | – | – |
| CCN1C(=O)C(=C2Sc3ccc(OC)cc3N2C)SC1=Nc1sc2ccccc2[n+]1CC [Compound I-8] | 4.50 × 10^4 | 467 | – | – | – | – |
| CCN1C(=O)C(=C2Sc3ccccc3N2C)SC1=Nc1sc2ccccc2[n+]1CC [Compound I-9] | 4.87 × 10^4 | 460 | – | – | – | – |
| CCN1C(=O)C(=C2Sc3ccccc3N2C)SC1=Nc1scc[n+]1C [Compound I-10] | 3.55 × 10^4 | 444 | – | > 250 | – | IC50 [3, 5]: > 20 µg/mL; T/C (%) ([4]; 15 mg/kg i.p. on day 1, 2, 3, 6, 8, 10): 173%; IC50 [1]: 0.08 µg/mL |
| CCN1C(=O)C(=C2Sc3ccccc3N2C)SC1=Nc1sc2cc(Cl)ccc2[n+]1CC [Compound I-17] | 4.17 × 10^4 | 462 | – | – | – | – |
| CCN1C(=O)C(=C2Sc3ccccc3N2C)SC1=Nc1sc2cc(OC)ccc2[n+]1CC [Compound I-18] | 4.74 × 10^4 | 466 | 0.15 | – | 177 | IC50 [3, 6]: 26.5 µg/mL |
| CCN1C(=O)C(=C2Sc3ccc(C)cc3N2C)SC1=Nc1sc2ccccc2[n+]1CC [Compound I-19] | – | – | – | 120 | – | IC50 [3, 5]: 6 µg/mL; IC50 [1]: 0.05 µg/mL |
| CCN1C(=O)C(=C2Sc3c(ccc4ccccc34)N2C)SC1=Nc1cccc[n+]1CC [Compound I-25] | – | – | 0.17 | 100 | 176 | IC50 [3, 5]: 10 µg/mL; IC50 [1]: 0.1 µg/mL |
| CCN1C(=O)C(=C2C=Cc3ccccc3N2C)SC1=Nc1cccc[n+]1CC [Compound I-33] | – | – | 0.39 | – | 77 | – |
| CCN1C(=O)C(=C2Sc3ccccc3N2C)SC1=Nc1scc[n+]1CC [Compound I-46] | – | – | 0.083 | – | 330 | IC50 [3, 6]: 27.4 µg/mL; T/C (%) ([4]; 10 mg/kg i.p. on day 1, 3, 4, 5, 6, 8): 175% |
| CCN1C(=O)C(=C2Sc3ccc4ccccc4c3N2C)SC1=Nc1scc[n+]1C [Compound I-47] | – | – | 0.037 | – | 686 | IC50 [3, 6]: 25.4 µg/mL; T/C (%) ([4]; 10 mg/kg i.p. on day 1, 3, 5): 207% |
| CCN1C(=O)C(=C2C=CN(C)c3ccccc32)SC1=Nc1scc[n+]1CC [Compound I-54] | – | – | 0.27 | – | 111 | T/C (%) ([4]; 6 mg/kg i.p. on day 1, 3, 4, 5, 6, 8): 169% |
| CCCN1C(=CC=CC=Cc2oc3ccccc3[n+]2CCC)Oc2ccccc21 [E, reference compound] | – | – | – | 12 | – | – |
| CCN1C(=CC=CC=Cc2sc3ccccc3[n+]2CC)Oc2ccccc21 [F, reference compound] | – | – | – | 50 | – | – |
| CCN1C(=CC(C)=Cc2sc3c4ccccc4ccc3[n+]2CC)Sc2c1ccc1ccccc21 [G, reference compound] | – | – | – | 5 | – | – |
| CCN1C(=CC=C(Cl)C=Cc2sc3ccc4ccccc4c3[n+]2CC)Sc2ccc3ccccc3c21 [H, reference compound] | – | – | – | 2.5 | – | – |
| CCN1C(=O)C(=CC=C2Sc3ccc4ccccc4c3N2CC)SC1=Nc1scc[n+]1C [II-7] | – | – | 0.15 | 133 | 200 | IC50 [3, 5]: 4 µg/mL; IC50 [1]: 0.03 µg/mL |
| CCN1C(=O)C(=CC=C2C=Cc3ccccc3N2CC)SC1=Nc1ccc2ccccc2[n+]1C [II-9] | 5.80 × 10^4 | 582 | 0.15 | – | 200 | – |
